Biological target: T1, Ba/F3 cell EGFR Exon20 ins NPH (Homo sapiens, UniProt P00533, INS773NPH)
T1 construct: expressed in transfected cells; host or cells: Ba/F3
Assay: Ba/F3 cell proliferation suppression, EGFR Exon20 ins NPH
Type: cell-based
Settings: GI50 class; Ba/F3 cell line with NPH inserted at Exon20 of EGFR; 72 hours
In short: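 After 72 h compound exposure (twelve 3-fold steps, 0.3 nM–50 um final), live cells were measured by CellTiter-Glo luminescence and growth expressed as % of control to derive GI50. Cells were seeded at 3000–5000 per well a day earlier; Ba/F3 medium contained IL-3; three repeats.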

SMILES	Ba/F3 (NPH) Activity
C=CC(=O)Nc1cc(Nc2cc(N3OCC[C@@H]3Cc3cccc(F)c3Cl)ncn2)c(OC)cc1N1CCC(N2CCN(C3CC3)[C@H](C)C2)CC1 [compound 1036, N-(5-((6-((S)-3-(2-chloro-3-fluorobenzyl)isoxazolidine-2-yl)pyrimidine-4-yl)amino)-2-(4-((R)-4-cyclopropyl-3-methylpiperazine-1-yl)piperidine-1-yl)-4-methoxyphenyl) acrylamide]	A (GI50 < 50 nM)
C=CC(=O)Nc1cc(Nc2cc(N3OCC[C@@H]3c3ccc(F)c(Cl)c3)ncn2)c(OC)cc1N1CCC(N2C[C@H](C)N(C3CC3)C[C@@H]2C)CC1 [Example 121, N-(5-((6-((R)-3-(3-chloro-4-fluorophenyl)isoxazolidine-2-yl)pyrimidine-4-yl)amino)-2-(4-((2S,5S)-4-cyclopropyl-2,5-dimethylpiperazine-1-yl)piperidine-1-yl)-4-methoxyphenyl) acrylamide]	A (GI50 < 50 nM)
C=CC(=O)Nc1cc(Nc2cc(N3OCC[C@@H]3c3cc(F)cc(F)c3)ncn2)c(OC)cc1N1CCO[C@H](C)C1 [compound 338, N-(5-((6-((R)-3-(3,5-difluorophenyl)isoxazolidine-2-yl)pyrimidine-4-yl)amino)-4-methoxy-2-((R)-2-methylmorpholino)phenyl)acrylamide]	B (50 nM ≤ GI50 < 500 nM)
C=CC(=O)Nc1cc(Nc2cc(N3OCC[C@@H]3c3cc(F)cc(F)c3)ncn2)c(OC)cc1N1CCC(N2CCN(CCN(C)C)CC2)CC1 [compound 753, N-(5-((6-((R)-3-(3,5-difluorophenyl)isoxazolidine-2-yl)pyrimidine-4-yl)amino)-2-(4-(4-(2-(dimethylamino)ethyl)piperazine-1-yl)piperidine-1-yl)-4-methoxyphenyl) acrylamide]	A (GI50 < 50 nM)
C=CC(=O)Nc1cc(Nc2cc(N3OCC[C@@H]3c3ccc(F)c(Cl)c3)ncn2)c(OC)cc1N1CCC(N2C[C@@H]3C[C@H]2CO3)CC1 [compound 716, N-(2-(4-((1S,4S)-2-oxa-5-azabicyclo[2.2.1]heptane-5-yl)piperidine-1-yl)-5-((6-((R)-3-(3-chloro-4-fluorophenyl)isoxazolidine-2-yl)pyrimidine-4-yl)amino)-4-methoxyphenyl) acrylamide]	A (GI50 < 50 nM)
C=CC(=O)Nc1cc(Nc2cc(N3OCC[C@@H]3c3ccc(F)cc3F)ncn2)c(OC)cc1N1CCC(N2CCN(C3CCN(C)CC3)CC2)CC1 [compound 430, N-(5-((6-((R)-3-(2,4-difluorophenyl)isoxazolidine-2-yl)pyrimidine-4-yl)amino)-4-methoxy-2-(4-(4-(1-methylpiperidine-4-yl)piperazine-1-yl)piperidine-1-yl)phenyl)acrylamide]	A (GI50 < 50 nM)
C=CC(=O)Nc1cc(Nc2cc(N3OCC[C@@H]3c3ccc(Cl)cc3)ncn2)c(OC)cc1N1CCC(N2C[C@@H](C)O[C@@H](C)C2)CC1 [compound 868, N-(5-((6-((R)-3-(4-chlorophenyl)isoxazolidine-2-yl)pyrimidine-4-yl)amino)-2-(4-((2S,6R)-2,6-dimethylmorpholino)piperidine-1-yl)-4-methoxyphenyl) acrylamide]	A (GI50 < 50 nM)
C=CC(=O)Nc1cc(Nc2cc(N3OCC[C@@H]3c3cccc4ccccc34)ncn2)c(OC)cc1N1CCC(N2CCN(C)CC2)CC1 [compound 482, N-(4-methoxy-2-(4-(4-methylpiperazine-1-yl)piperidine-1-yl)-5-((6-((R)-3-(naphthalene-1-yl)isoxazolidine-2-yl)pyrimidine-4-yl)amino)phenyl)acrylamide]	A (GI50 < 50 nM)
C=CC(=O)Nc1cc(Nc2cc(N3OCC[C@@H]3c3ccc(Cl)c(F)c3)ncn2)c(OC)cc1N1CCC(N2C[C@@H]3C[C@H]2CN3CC)CC1 [compound 858, N-(5-((6-((R)-3-(4-chloro-3-fluorophenyl)isoxazolidine-2-yl)pyrimidine-4-yl)amino)-2-(4-((1S,4S)-5-ethyl-2,5-diazabicyclo [2.2.1]heptane-2-yl)piperidine-1-yl)-4-methoxyphenyl) acrylamide]	A (GI50 < 50 nM)

Reference: US12157730B2, “Heteroaryl derivative, method for producing same, and pharmaceutical composition comprising same as effective component” (VORONOI INC., priority 2019, dated 2024)
